Experiment [1] addresses EGFR wildtype (Homo sapiens, UniProt P00533). Description: Biochemical EGFR kinase assay (Lance Ultra TR-FRET), wildtype. The procedure, abridged: (§1)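 In this biochemical assay, phosphorylation after a one-hour room-temperature reaction was detected with europium-labelled anti-phosphopeptide antibody at 2 nM final concentration.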
Experiment [2] concerns the target EGFR del19/T790M/C797S (Homo sapiens, UniProt P00533, C797S/DEL746-750/T790M). The experiment is described as follows: Biochemical EGFR kinase assay (Lance Ultra TR-FRET), triple mutant del19/T790M/C797S. The procedure, abridged: as §1
In general terms: In TR-FRET formats the signal depends on donor and acceptor labels being close together.

The target of experiment [3] is EGFR del19/C797S (Homo sapiens, UniProt P00533, C797S/DEL746-750). The experiment is described as follows: Biochemical EGFR kinase assay (Lance Ultra TR-FRET), double mutant del19/C797S. The procedure, abridged:
as §1

Experiment [4] concerns the target EGFR L858R/T790M/C797S (Homo sapiens, UniProt P00533, C797S/L858R/T790M). Description: Biochemical EGFR kinase assay (Lance Ultra TR-FRET), triple mutant L858R/T790M/C797S. The essentials: as §1
Experiment [5] deals with EGFR L858R/C797S (Homo sapiens, UniProt P00533, C797S/L858R). The experiment is described as follows: Biochemical EGFR kinase assay (Lance Ultra TR-FRET), double mutant L858R/C797S. The procedure, abridged:
as §1

Where [6] appears, read: IC50 WT (nM) 100 μM ATP, 100 μM ATP.
Where [7] appears, read: Km ATP, read-out: IC50 WT (nM) Km ATP.
Setting [8] is: IC50 del19/T790M/C797S (nM) 100 μM ATP, 100 μM ATP.
Where [9] appears, read: Km ATP, read-out: IC50 del19/T790M/C797S (nM) Km ATP.
The mark [10] stands for this setting: IC50 del19/C797S (nM) 100 μM ATP, 100 μM ATP.
Where [11] appears, read: Km ATP, read-out: IC50 del19/C797S (nM) Km ATP.
Where [12] appears, read: IC50 L858R/T790M/C797S (nM) 100 μM ATP, 100 μM ATP.
The mark [13] stands for this setting: Km ATP, read-out: IC50 L858R/T790M/C797S (nM) Km ATP.
[14] abbreviates: IC50 L858R/C797S (nM) 100 μM ATP, 100 μM ATP.
The mark [15] stands for this setting: Km ATP, read-out: IC50 L858R/C797S (nM) Km ATP.

Drawing on patent US12258328B2, “6-membered heteroaryl-containing aminopyridine compounds as EGFR inhibitors” (YUHAN CORPORATION, priority 2021, dated 2025), this text covers IC50 for 5 compounds.

pIC50: −log10 of the molar value. Where two headings read alike, the source gives them in different places.

Chain of EGFR L858R/T790M/C797S (P00533 25-1210 T790M/C797S/L858R): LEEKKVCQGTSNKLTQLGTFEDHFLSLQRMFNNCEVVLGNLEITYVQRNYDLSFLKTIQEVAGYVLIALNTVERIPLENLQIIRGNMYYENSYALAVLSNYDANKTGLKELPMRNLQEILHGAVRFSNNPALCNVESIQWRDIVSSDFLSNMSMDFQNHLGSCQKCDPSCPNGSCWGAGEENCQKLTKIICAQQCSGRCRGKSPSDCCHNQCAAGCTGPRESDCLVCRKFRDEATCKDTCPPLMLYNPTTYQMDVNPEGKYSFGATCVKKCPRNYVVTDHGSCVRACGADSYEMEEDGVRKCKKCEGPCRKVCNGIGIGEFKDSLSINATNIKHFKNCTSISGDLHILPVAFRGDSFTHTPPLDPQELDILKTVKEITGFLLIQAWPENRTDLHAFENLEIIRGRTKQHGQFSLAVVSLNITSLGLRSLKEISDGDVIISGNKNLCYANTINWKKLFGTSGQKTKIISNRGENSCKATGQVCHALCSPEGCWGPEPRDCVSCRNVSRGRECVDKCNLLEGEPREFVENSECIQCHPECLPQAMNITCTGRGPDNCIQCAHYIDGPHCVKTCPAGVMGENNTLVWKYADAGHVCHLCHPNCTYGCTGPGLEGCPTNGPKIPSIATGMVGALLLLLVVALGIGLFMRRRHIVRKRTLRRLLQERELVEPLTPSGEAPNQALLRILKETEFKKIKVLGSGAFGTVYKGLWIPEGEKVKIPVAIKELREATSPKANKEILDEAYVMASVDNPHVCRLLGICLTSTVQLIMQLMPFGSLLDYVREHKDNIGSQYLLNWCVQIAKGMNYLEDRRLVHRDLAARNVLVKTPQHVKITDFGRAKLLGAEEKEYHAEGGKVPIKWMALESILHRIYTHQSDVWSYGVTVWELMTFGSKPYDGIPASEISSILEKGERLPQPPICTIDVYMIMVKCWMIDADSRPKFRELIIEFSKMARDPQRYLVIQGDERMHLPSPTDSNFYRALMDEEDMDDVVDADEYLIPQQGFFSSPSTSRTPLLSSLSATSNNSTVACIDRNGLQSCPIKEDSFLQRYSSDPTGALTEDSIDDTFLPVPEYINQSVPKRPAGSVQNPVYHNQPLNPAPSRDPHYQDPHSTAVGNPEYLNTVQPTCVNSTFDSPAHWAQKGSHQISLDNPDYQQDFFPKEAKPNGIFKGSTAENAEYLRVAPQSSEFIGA
Chain of EGFR L858R/C797S (P00533 25-1210 C797S/L858R): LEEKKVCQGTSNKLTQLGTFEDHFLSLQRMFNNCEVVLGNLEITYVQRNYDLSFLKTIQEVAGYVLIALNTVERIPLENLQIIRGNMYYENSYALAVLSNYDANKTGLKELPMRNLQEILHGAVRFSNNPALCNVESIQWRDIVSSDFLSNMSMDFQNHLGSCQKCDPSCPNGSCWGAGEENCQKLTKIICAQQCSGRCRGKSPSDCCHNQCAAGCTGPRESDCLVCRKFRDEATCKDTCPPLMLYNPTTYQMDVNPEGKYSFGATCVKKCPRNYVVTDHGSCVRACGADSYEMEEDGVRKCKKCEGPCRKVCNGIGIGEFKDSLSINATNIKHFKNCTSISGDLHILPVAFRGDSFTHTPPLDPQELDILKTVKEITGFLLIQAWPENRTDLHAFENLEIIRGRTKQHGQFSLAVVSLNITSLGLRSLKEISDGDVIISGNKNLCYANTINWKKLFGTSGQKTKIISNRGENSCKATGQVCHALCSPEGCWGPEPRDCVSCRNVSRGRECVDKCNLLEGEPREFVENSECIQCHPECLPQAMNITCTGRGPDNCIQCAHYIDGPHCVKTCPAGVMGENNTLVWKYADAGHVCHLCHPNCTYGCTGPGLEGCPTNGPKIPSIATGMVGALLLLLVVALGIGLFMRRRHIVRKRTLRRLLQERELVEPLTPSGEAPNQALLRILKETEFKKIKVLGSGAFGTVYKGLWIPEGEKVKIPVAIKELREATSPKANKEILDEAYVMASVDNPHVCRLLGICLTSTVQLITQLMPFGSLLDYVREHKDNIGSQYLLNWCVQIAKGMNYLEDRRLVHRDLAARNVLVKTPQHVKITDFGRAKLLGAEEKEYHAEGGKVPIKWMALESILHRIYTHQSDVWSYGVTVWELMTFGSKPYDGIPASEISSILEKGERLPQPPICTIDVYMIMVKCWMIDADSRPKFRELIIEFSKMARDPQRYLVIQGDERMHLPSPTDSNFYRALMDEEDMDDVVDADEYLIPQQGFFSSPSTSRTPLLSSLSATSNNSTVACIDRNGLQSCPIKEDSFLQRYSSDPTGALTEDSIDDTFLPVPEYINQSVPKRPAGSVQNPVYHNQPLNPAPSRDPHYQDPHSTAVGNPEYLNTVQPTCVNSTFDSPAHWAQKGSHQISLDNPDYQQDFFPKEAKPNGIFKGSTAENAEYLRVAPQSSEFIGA
Chain of EGFR wildtype (P00533 25-1210): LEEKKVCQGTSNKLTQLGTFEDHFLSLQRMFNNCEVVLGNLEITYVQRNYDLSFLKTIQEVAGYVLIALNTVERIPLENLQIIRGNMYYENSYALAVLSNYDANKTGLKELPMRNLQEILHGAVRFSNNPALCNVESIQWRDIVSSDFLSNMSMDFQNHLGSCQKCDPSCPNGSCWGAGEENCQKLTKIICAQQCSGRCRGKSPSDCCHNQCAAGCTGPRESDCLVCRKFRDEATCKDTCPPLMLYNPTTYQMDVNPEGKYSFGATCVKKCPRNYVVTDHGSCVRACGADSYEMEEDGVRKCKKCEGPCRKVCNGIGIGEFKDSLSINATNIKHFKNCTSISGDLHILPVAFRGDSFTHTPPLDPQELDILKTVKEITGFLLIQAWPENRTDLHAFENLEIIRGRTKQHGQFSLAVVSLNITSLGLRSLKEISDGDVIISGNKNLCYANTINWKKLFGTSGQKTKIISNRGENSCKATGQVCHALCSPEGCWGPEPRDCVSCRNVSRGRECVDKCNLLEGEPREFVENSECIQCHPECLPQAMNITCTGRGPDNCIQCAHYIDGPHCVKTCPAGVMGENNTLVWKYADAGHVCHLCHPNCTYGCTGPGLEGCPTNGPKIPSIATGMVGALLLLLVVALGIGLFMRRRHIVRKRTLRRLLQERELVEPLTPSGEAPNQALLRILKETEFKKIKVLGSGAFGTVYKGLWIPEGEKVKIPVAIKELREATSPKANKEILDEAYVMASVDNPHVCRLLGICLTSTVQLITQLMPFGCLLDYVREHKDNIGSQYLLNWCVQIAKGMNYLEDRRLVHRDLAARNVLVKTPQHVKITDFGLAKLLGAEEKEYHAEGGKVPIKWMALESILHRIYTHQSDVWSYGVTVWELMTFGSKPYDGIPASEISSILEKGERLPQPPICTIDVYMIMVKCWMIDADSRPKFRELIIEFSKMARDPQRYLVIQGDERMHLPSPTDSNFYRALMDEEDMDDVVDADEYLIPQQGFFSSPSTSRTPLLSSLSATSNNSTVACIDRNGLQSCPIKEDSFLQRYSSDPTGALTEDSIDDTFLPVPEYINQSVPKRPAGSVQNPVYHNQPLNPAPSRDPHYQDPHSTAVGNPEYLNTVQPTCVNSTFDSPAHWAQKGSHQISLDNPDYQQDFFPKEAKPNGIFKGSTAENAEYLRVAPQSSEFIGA
Chain of EGFR del19/T790M/C797S (P00533 with tags, fused parts or gaps DEL746-750/T790M/C797S): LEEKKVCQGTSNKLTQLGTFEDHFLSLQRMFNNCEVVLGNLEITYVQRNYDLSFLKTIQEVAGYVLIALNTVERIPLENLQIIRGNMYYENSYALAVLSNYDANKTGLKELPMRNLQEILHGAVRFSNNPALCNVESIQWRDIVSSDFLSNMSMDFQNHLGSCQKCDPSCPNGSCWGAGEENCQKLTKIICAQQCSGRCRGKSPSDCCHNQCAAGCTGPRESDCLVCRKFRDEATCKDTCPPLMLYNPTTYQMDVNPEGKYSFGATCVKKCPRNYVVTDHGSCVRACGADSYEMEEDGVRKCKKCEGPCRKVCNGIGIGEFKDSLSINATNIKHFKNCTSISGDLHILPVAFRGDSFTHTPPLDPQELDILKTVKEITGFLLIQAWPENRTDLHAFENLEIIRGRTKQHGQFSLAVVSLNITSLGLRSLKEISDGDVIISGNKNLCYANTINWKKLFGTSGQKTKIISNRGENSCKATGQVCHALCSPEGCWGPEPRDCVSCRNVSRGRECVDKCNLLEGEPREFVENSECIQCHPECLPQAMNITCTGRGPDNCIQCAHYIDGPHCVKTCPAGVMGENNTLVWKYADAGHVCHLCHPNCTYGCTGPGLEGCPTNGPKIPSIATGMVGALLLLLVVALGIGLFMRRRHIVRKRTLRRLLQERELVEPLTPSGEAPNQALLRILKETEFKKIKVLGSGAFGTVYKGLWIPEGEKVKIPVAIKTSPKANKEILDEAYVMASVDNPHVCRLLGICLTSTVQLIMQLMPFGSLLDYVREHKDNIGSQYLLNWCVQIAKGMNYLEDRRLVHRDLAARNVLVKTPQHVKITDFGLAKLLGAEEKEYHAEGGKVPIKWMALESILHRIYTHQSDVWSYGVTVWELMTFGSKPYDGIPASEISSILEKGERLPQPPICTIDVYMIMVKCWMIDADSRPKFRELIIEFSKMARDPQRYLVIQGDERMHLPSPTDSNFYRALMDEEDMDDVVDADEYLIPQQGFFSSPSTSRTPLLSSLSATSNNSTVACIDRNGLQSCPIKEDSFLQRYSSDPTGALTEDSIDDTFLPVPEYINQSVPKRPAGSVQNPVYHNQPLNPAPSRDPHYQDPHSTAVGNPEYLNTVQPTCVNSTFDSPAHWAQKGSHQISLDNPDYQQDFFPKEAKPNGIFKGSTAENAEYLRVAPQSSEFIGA

Take `CN(C)c1ccnc(-c2cnc(Nc3ccnc(-c4cnn(S(=O)(=O)C5CC5)c4)n3)cc2N[C@H]2CC[C@@](C)(O)CC2)n1` [Example 41, (1s,4s)-4-((2-((2-(1-(Cyclopropylsulfonyl)-1H-pyrazol-4-yl)pyrimidin-4-yl)amino)-5-(4-(dimethylamino)pyrimidin-2-yl)pyridin-4-yl)amino)-1-methylcyclohexan-1-ol]: the IC50 is greater than 10000 nM in experiment [1] (setting [6]); 43.6 nM in experiment [1] (setting [7]); 0.8 nM in experiment [2] (setting [8]); 0.3 nM in experiment [2] (setting [9]); 5.1 nM in experiment [3] (setting [10]); 4.5 nM in experiment [3] (setting [11]). Moreover, the IC50 stood at 0.9 nM in experiment [4] (setting [12]), 0.2 nM in experiment [4] (setting [13]), 523 nM in experiment [5] (setting [14]) and 4 nM in experiment [5] (setting [15]).

Take `CN1CCN(Cc2cnc(-c3cnc(Nc4ccnc(-c5cnn(S(=O)(=O)C6CC6)c5)n4)cc3N[C@H]3CC[C@@](C)(O)CC3)cn2)CC1` [Example 62, (1s,4s)-4-((2-((2-(1-(Cyclopropylsulfonyl)-1H-pyrazol-4-yl)pyrimidin-4-yl)amino)-5-(5-((4-methylpiperazin-1-yl)methyl)pyrazin-2-yl)pyridin-4-yl)amino)-1-methylcyclohexan-1-ol]: the IC50 in experiment [1] (setting [6]) stood at 745 nM; in experiment [2] (setting [8]), 0.1 nM; in experiment [3] (setting [10]), 0.2 nM; in experiment [4] (setting [12]), 0.1 nM; in experiment [5] (setting [14]), 0.9 nM.

For the compound `Cc1ccc(-c2cnc(Nc3ccnc(-c4cnn(S(=O)(=O)C5CC5)c4)n3)cc2N[C@H]2CC[C@@](C)(O)CC2)nn1` [Example 52, (1s,4s)-4-((2-((2-(1-(Cyclopropylsulfonyl)-1H-pyrazol-4-yl)pyrimidin-4-yl)amino)-5-(6-methylpyridazin-3-yl)pyridin-4-yl)amino)-1-methylcyclohexan-1-ol], the IC50 is greater than 10000 nM in experiment [1] (setting [6]); 3 nM in experiment [1] (setting [7]); 0.5 nM in experiment [2] (setting [8]); 0.3 nM in experiment [2] (setting [9]); 0.6 nM in experiment [3] (setting [10]); 0.5 nM in experiment [3] (setting [11]). Also, the IC50 in experiment [4] (setting [12]) was found to be 0.3 nM; in experiment [4] (setting [13]), 0.1 nM; in experiment [5] (setting [15]), 0.6 nM.

Take `CC(C)(O)[C@H]1CC[C@@H](Nc2cc(Nc3ccnc(-c4cnn(S(=O)(=O)C5CC5)c4)n3)ncc2-c2ccc(CO)cn2)CC1` [Example 24, 2-((1s,4s)-4-((6′-((2-(1-(Cyclopropylsulfonyl)-1H-pyrazol-4-yl)pyrimidin-4-yl)amino)-5-(hydroxymethyl)-[2,3′-bipyridin]-4′-yl)amino)cyclohexyl)propan-2-ol]: the IC50 was greater than 10000 nM in experiment [1] (setting [6]); 2.8 nM in experiment [1] (setting [7]); 8.4 nM in experiment [2] (setting [8]); 1 nM in experiment [2] (setting [9]); 2.2 nM in experiment [3] (setting [10]); 1 nM in experiment [3] (setting [11]). Further, the IC50 in experiment [4] (setting [12]) was 0.9 nM; in experiment [5] (setting [14]) it was 3.5 nM; in experiment [5] (setting [15]), 0.7 nM.

Turning to `CN1CCC(Oc2ccc(-c3cnc(Nc4ccnc(-c5cnn(S(=O)(=O)C6CC6)c5)n4)cc3NC3CCN(CC(F)F)CC3)nc2)CC1` [Example 258, N^6′-(2-(1-(Cyclopropylsulfonyl)-1H-pyrazol-4-yl)pyrimidin-4-yl)-N^4′-(1-(2,2-difluoroethyl)piperidin-4-yl)-5-((1-methylpiperidin-4-yl)oxy)-[2,3′-bipyridine]-4′,6′-diamine], the pIC50 in experiment [1] (ATP at Km, read-out: IC50 WT, Km ATP) is 7.85; in experiment [2] (ATP at Km, read-out: IC50 del19/T790M/C797S, Km ATP), 9.70; in experiment [3] (ATP at Km, read-out: IC50 del19/C797S, Km ATP), 9.15; in experiment [4] (ATP at Km, read-out: IC50 L858R/T790M/C797S, Km ATP), 10.00; in experiment [5] (ATP at Km, read-out: IC50 L858R/C797S, Km ATP) it was 10.00.
